# From patent US20230085307A1, “PYRIDAZINONE COMPOUND AND HERBICIDE” (NISSAN CHEMICAL CORPORATION, priority 2019, published 2023)
# How the values were obtained:
# [1] = system: barnyard grass; test: Test Example 3: herbicidal effect by foliage application, Wagner pot (Table 18, symbol H); assay type: in vivo, barnyard grass (Echinochloa crus-galli)
# Procedure, shortened: (§1)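 Plants were sown in alluvial soil held under 0.1–0.5 cm standing water and grown 14 days in a greenhouse at 25–30 °C. An emulsifiable formulation, water-diluted to the set dose, was then sprayed onto the foliage, and effects were scored three weeks later using previously defined criteria.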
# [2] = system: Chinese sprangletop; test: Test Example 3: herbicidal effect by foliage application, Wagner pot (Table 18, symbol D); assay type: in vivo, chinese sprangletop (Leptochloa chinensis)
# Procedure, shortened: as §1
# [3] = system: rice flat sedge; test: Test Example 3: herbicidal effect by foliage application, Wagner pot (Table 18, symbol E); assay type: in vivo, rice flat sedge (Cyperus iria)
# Procedure, shortened: as §1
# [4] = system: southern crabgrass; test: Test Example 4: herbicidal effect by soil treatment (Table 19, symbol F); assay type: in vivo, southern crabgrass (Digitaria ciliaris)
# Procedure, shortened: (§2)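 Seeds were sown in sterilized diluvial soil and covered with about 1.5 cm of soil. An emulsion formulation diluted with water to a predetermined herbicide amount was sprayed evenly onto the soil surface. Plants grew in a greenhouse at 25° C. to 30° C., and the effect was scored three weeks after application using criteria from an earlier test.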
# [5] = system: green foxtail; test: Test Example 4: herbicidal effect by soil treatment (Table 19, symbol G); assay type: in vivo, green foxtail (Setaria viridis)
# Procedure, shortened: as §2
# [6] = system: barnyard grass; test: Test Example 4: herbicidal effect by soil treatment (Table 19, symbol H); assay type: in vivo, barnyard grass (Echinochloa crus-galli)
# Procedure, shortened: as §2
# [7] = system: wild oat; test: Test Example 4: herbicidal effect by soil treatment (Table 19, symbol I); assay type: in vivo, wild oat (Avena fatua)
# Procedure, shortened: as §2
# [8] = system: blackgrass; test: Test Example 4: herbicidal effect by soil treatment (Table 19, symbol J); assay type: in vivo, blackgrass (Alopecurus myosuroides)
# Procedure, shortened: as §2
# [9] = system: Italian ryegrass; test: Test Example 4: herbicidal effect by soil treatment (Table 19, symbol K); assay type: in vivo, Italian ryegrass (Lolium multiflorum)
# Procedure, shortened: as §2
# [10] = system: windgrass; test: Test Example 4: herbicidal effect by soil treatment (Table 19, symbol L); assay type: in vivo, windgrass (Apera spica-venti)
# Procedure, shortened: as §2
# [11] = system: velvetleaf; test: Test Example 4: herbicidal effect by soil treatment (Table 19, symbol M); assay type: in vivo, velvetleaf (Abutilon theophrasti)
# Procedure, shortened: as §2
# [12] = system: redroot pigweed; test: Test Example 4: herbicidal effect by soil treatment (Table 19, symbol N); assay type: in vivo, redroot pigweed (Amaranthus retroflexus)
# Procedure, shortened: as §2
# [13] = system: lambsquarters; test: Test Example 4: herbicidal effect by soil treatment (Table 19, symbol O); assay type: in vivo, lambsquarters (Chenopodium album)
# Procedure, shortened: as §2
# [14] = system: chickweed; test: Test Example 4: herbicidal effect by soil treatment (Table 19, symbol P); assay type: in vivo, common chickweed (Stellaria media)
# Procedure, shortened: as §2
# [15] = system: false cleavers; test: Test Example 4: herbicidal effect by soil treatment (Table 19, symbol Q); assay type: in vivo, false cleavers (Galium spurium)
# Procedure, shortened: as §2
# [16] = system: persian speedwell; test: Test Example 4: herbicidal effect by soil treatment (Table 19, symbol R); assay type: in vivo, Persian speedwell (Veronica persica)
# Procedure, shortened: as §2
# [17] = system: southern crabgrass; test: Test Example 5: herbicidal effect by foliage application, plastic box (Table 20, symbol F); assay type: in vivo, southern crabgrass (Digitaria ciliaris); details: foliage application, 320 g/ha
# Procedure, shortened: (§3)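 Plants sown in sterilized diluvial soil and grown 14 days in a greenhouse at 25° C to 30° C, then sprayed on the foliage with the compound's emulsion diluted in water to a predetermined herbicide amount. Injury to weeds and crops scored three weeks after application on a visual rating scale.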
# [18] = system: green foxtail; test: Test Example 5: herbicidal effect by foliage application, plastic box (Table 20, symbol G); assay type: in vivo, green foxtail (Setaria viridis); details: foliage application, 320 g/ha
# Procedure, shortened: as §3
# [19] = system: barnyard grass; test: Test Example 5: herbicidal effect by foliage application, plastic box (Table 20, symbol H); assay type: in vivo, barnyard grass (Echinochloa crus-galli); details: foliage application, 320 g/ha
# Procedure, shortened: as §3
# [20] = system: wild oat; test: Test Example 5: herbicidal effect by foliage application, plastic box (Table 20, symbol I); assay type: in vivo, wild oat (Avena fatua); details: foliage application, 320 g/ha
# Procedure, shortened: as §3
# [21] = system: blackgrass; test: Test Example 5: herbicidal effect by foliage application, plastic box (Table 20, symbol J); assay type: in vivo, blackgrass (Alopecurus myosuroides); details: foliage application, 320 g/ha
# Procedure, shortened: as §3
# [22] = system: Italian ryegrass; test: Test Example 5: herbicidal effect by foliage application, plastic box (Table 20, symbol K); assay type: in vivo, Italian ryegrass (Lolium multiflorum); details: foliage application, 320 g/ha
# Procedure, shortened: as §3
# [23] = system: windgrass; test: Test Example 5: herbicidal effect by foliage application, plastic box (Table 20, symbol L); assay type: in vivo, windgrass (Apera spica-venti); details: foliage application, 320 g/ha
# Procedure, shortened: as §3
# [24] = system: velvetleaf; test: Test Example 5: herbicidal effect by foliage application, plastic box (Table 20, symbol M); assay type: in vivo, velvetleaf (Abutilon theophrasti); details: foliage application, 320 g/ha
# Procedure, shortened: as §3
# [25] = system: lambsquarters; test: Test Example 5: herbicidal effect by foliage application, plastic box (Table 20, symbol O); assay type: in vivo, lambsquarters (Chenopodium album); details: foliage application, 320 g/ha
# Procedure, shortened: as §3
# [26] = system: persian speedwell; test: Test Example 5: herbicidal effect by foliage application, plastic box (Table 20, symbol R); assay type: in vivo, Persian speedwell (Veronica persica); details: foliage application, 320 g/ha
# Procedure, shortened: as §3
# [27] = amount of applied herbicide 320 g/ha
compound,measurement,setting,value
COCCOCOc1c(C)nn(C)c(=O)c1-c1c(-c2ccc(OC(C)C#N)cc2)sc2ccccc12 (racemic) [1-237],"herbicidal effect on H (barnyard grass), rating 0-5",[1]; 320 g/ha,5 (Herbicidal rate of 90% or more (almost completely withered))
same,"herbicidal effect on D (Chinese sprangletop), rating 0-5",[2]; 320 g/ha,4 (Herbicidal rate of 70% or more and less than 90%)
same,"herbicidal effect on E (rice flat sedge), rating 0-5",[3]; 320 g/ha,4 (Herbicidal rate of 70% or more and less than 90%)
same,"F: southern crabgrass, herbicidal effect rating",[4]; AAH 320 g/ha,1 (Herbicidal rate of 5% or more and less than 20%)
same,"G: green foxtail, herbicidal effect rating",[5]; AAH 320 g/ha,4 (Herbicidal rate of 70% or more and less than 90%)
same,"H: barnyard grass, herbicidal effect rating",[6]; AAH 320 g/ha,0 (Herbicidal rate of 5% or less (almost no effect))
same,"I: wild oat, herbicidal effect rating",[7]; AAH 320 g/ha,0 (Herbicidal rate of 5% or less (almost no effect))
same,"J: blackgrass, herbicidal effect rating",[8]; AAH 320 g/ha,0 (Herbicidal rate of 5% or less (almost no effect))
same,"K: Italian ryegrass, herbicidal effect rating",[9]; AAH 320 g/ha,3 (Herbicidal rate of 40% or more and less than 70%)
same,"L: windgrass, herbicidal effect rating",[10]; AAH 320 g/ha,0 (Herbicidal rate of 5% or less (almost no effect))
same,"M: velvetleaf, herbicidal effect rating",[11]; AAH 320 g/ha,1 (Herbicidal rate of 5% or more and less than 20%)
same,"N: redroot pigweed, herbicidal effect rating",[12]; AAH 320 g/ha,5 (Herbicidal rate of 90% or more (almost completely withered))
same,"O: lambsquarters, herbicidal effect rating",[13]; AAH 320 g/ha,3 (Herbicidal rate of 40% or more and less than 70%)
same,"P: chickweed, herbicidal effect rating",[14]; AAH 320 g/ha,3 (Herbicidal rate of 40% or more and less than 70%)
same,"Q: false cleavers, herbicidal effect rating",[15]; AAH 320 g/ha,0 (Herbicidal rate of 5% or less (almost no effect))
same,"R: persian speedwell, herbicidal effect rating",[16]; AAH 320 g/ha,5 (Herbicidal rate of 90% or more (almost completely withered))
same,effect on southern crabgrass (F),[17]; 3 weeks after application,3 (Herbicidal rate of 40% or more and less than 70%)
same,effect on green foxtail (G),[18]; 3 weeks after application,5 (Herbicidal rate of 90% or more (almost completely withered))
same,effect on barnyard grass (H),[19]; 3 weeks after application,4 (Herbicidal rate of 70% or more and less than 90%)
same,effect on wild oat (I),[20]; 3 weeks after application,3 (Herbicidal rate of 40% or more and less than 70%)
same,effect on blackgrass (J),[21]; 3 weeks after application,4 (Herbicidal rate of 70% or more and less than 90%)
same,effect on Italian ryegrass (K),[22]; 3 weeks after application,4 (Herbicidal rate of 70% or more and less than 90%)
same,effect on windgrass (L),[23]; 3 weeks after application,1 (Herbicidal rate of 5% or more and less than 20%)
same,effect on velvetleaf (M),[24]; 3 weeks after application,4 (Herbicidal rate of 70% or more and less than 90%)
same,effect on lambsquarters (O),[25]; 3 weeks after application,5 (Herbicidal rate of 90% or more (almost completely withered))
same,effect on persian speedwell (R),[26]; 3 weeks after application,5 (Herbicidal rate of 90% or more (almost completely withered))
Cc1nn(C)c(=O)c(-c2c(-c3ccc(F)cc3)oc3ccc(F)cc23)c1O [9-014],"Herbicidal effect on H (barnyard grass), foliage application",[1]; [27],3 (Herbicidal rate of 40% or more and less than 70%)
same,"Herbicidal effect on D (Chinese sprangletop), foliage application",[2]; [27],3 (Herbicidal rate of 40% or more and less than 70%)
same,"Herbicidal effect on E (rice flat sedge), foliage application",[3]; [27],5 (Herbicidal rate of 90% or more (almost completely withered))
same,"F: southern crabgrass, herbicidal effect grade",[4]; [27],4 (Herbicidal rate of 70% or more and less than 90%)
same,"G: green foxtail, herbicidal effect grade",[5]; [27],5 (Herbicidal rate of 90% or more (almost completely withered))
same,"H: barnyard grass, herbicidal effect grade",[6]; [27],4 (Herbicidal rate of 70% or more and less than 90%)
same,"I: wild oat, herbicidal effect grade",[7]; [27],1 (Herbicidal rate of 5% or more and less than 20%)
same,"J: blackgrass, herbicidal effect grade",[8]; [27],4 (Herbicidal rate of 70% or more and less than 90%)
same,"K: Italian ryegrass, herbicidal effect grade",[9]; [27],5 (Herbicidal rate of 90% or more (almost completely withered))
same,"L: windgrass, herbicidal effect grade",[10]; [27],0 (Herbicidal rate of 5% or less (almost no effect))
same,"M: velvetleaf, herbicidal effect grade",[11]; [27],4 (Herbicidal rate of 70% or more and less than 90%)
same,"N: redroot pigweed, herbicidal effect grade",[12]; [27],5 (Herbicidal rate of 90% or more (almost completely withered))
same,"O: lambsquarters, herbicidal effect grade",[13]; [27],3 (Herbicidal rate of 40% or more and less than 70%)
same,"P: chickweed, herbicidal effect grade",[14]; [27],5 (Herbicidal rate of 90% or more (almost completely withered))
same,"Q: false cleavers, herbicidal effect grade",[15]; [27],0 (Herbicidal rate of 5% or less (almost no effect))
same,"R: persian speedwell, herbicidal effect grade",[16]; [27],4 (Herbicidal rate of 70% or more and less than 90%)
same,herbicidal effect on southern crabgrass (F),[17]; three weeks after application,2 (Herbicidal rate of 20% or more and less than 40%)
same,herbicidal effect on green foxtail (G),[18]; three weeks after application,4 (Herbicidal rate of 70% or more and less than 90%)
same,herbicidal effect on barnyard grass (H),[19]; three weeks after application,4 (Herbicidal rate of 70% or more and less than 90%)
same,herbicidal effect on wild oat (I),[20]; three weeks after application,3 (Herbicidal rate of 40% or more and less than 70%)
same,herbicidal effect on blackgrass (J),[21]; three weeks after application,4 (Herbicidal rate of 70% or more and less than 90%)
same,herbicidal effect on Italian ryegrass (K),[22]; three weeks after application,5 (Herbicidal rate of 90% or more (almost completely withered))
same,herbicidal effect on windgrass (L),[23]; three weeks after application,4 (Herbicidal rate of 70% or more and less than 90%)
same,herbicidal effect on velvetleaf (M),[24]; three weeks after application,3 (Herbicidal rate of 40% or more and less than 70%)
same,herbicidal effect on lambsquarters (O),[25]; three weeks after application,4 (Herbicidal rate of 70% or more and less than 90%)
same,herbicidal effect on persian speedwell (R),[26]; three weeks after application,5 (Herbicidal rate of 90% or more (almost completely withered))
